We go through 14 compounds from patent US9096499B2, “Compounds for treatment of cell proliferative diseases” (Board of Regents, The University of Texas System, priority 2003, dated 2015).

Entries after “also recorded” stand apart in the source; their conditions may differ.

Test [1] deals with c-myc. Nature of the test: c-myc protein expression by immunoblot in MM cells. It counts as cell-based. The arrangement: key to C-Myc: (inhibition = ↓); (no effect) = —. Particulars: for C-Myc: c-myc downregulation, immunoblot. As to the method: To determine the effect of compounds on both Stat3 activation and c-myc protein expression MM-1, OCI-My5 and U266 cells were incubated with 25 μM of AG1801, AG490, WP1038, WP1039, WP1051, or WP1052 for 2 hours before cells were stimulated with 2 ng/ml IL-6 for 10 min. Cell lysates were prepared and immunoblotted for p-Stat3, Stat3, c-myc and actin (as a control).
(§1) To determine the temporal effects and mechanism of action of AG490 and AG1801 action on c-myc expression in MM cells, MM-1 cells were incubated with 0, 25, or 50 μM of AG490 or AG1801 and harvested at 30, 60, or 120 min. Lysates were immunoblotted for c-myc or actin as a protein loading control. […] Semi-quantitative PCR was used to measure changes in c-myc mRNA extracted from cells treated for 30 min with AG1801 at 25 μM. GAPDH PCR was used as a control.
These compounds were evaluated for their signal inhibitory and anti-proliferative/apoptotic properties on multiple myeloma, lymphoma and chronic myelogenous leukemia cell lines. WP1015, WP1034, AG1801, and AG490 were tested across a range of concentrations (6,12, and 25 μM) for their ability to inhibit c-myc expression using immunoblots.
These immunoblots tested a range of concentrations (1.56-25 μM for WP compounds) and used β-actin as a control.
(Immunoblotting shows a protein as a band on a membrane.)

Another test relates to MM-1 MM cells. Nature of the test: MTT cell growth and survival assay, MM-1 MM cells. It counts as cell-based. Particulars: for IC50 / Growth and survival of MM1 cells (in words): 72 hours; for IC50: MTT assay, read-out: IC50 (μM) MM1; for Growth and survival of MM1 cells (in words): MTT, FIG. 2A/3A. The procedure: (§2) To determine the effect of AG and WP compounds on MM cell growth/survival, MM cells were incubated with the indicated concentration of AG or WP for 72 hours before cell growth and survival were estimated by MTT assay.
(§3) To determine the effect of AG and WP compounds on MM cell growth/survival MM cells were incubated with the indicated concentration of AG or WP for 72 hours before cell growth and survival were estimated by MTT assay.
(Tetrazolium dyes change colour on reduction, which living cells bring about.)

The subject of a further test is U266 MM cells. The test can be described thus: MTT cell growth and survival assay, U266 MM cells. The format is cell-based. Particulars: 72 hours; for Growth and survival of U266 cells (in words): MTT, FIG. 2C/3C; for IC50: Homo sapiens, U-266, MTT assay. The procedure:
as §2, §3

In a further test the test system is OCI MM cells. Nature of the test: MTT cell growth and survival assay, OCI MM cells. The format is cell-based. Particulars: 72 hours; for IC50: MTT assay; for Growth and survival of OCI cells (in words): MTT, FIG. 2B/3B. The procedure:
as §2, §3

The subject of the next test is c-myc mRNA. Nature of the test: Semi-quantitative PCR of c-myc mRNA in MM-1 cells. The format is cell-based. Particulars: 25 μM, 30 min. The procedure: as §1
For test [2], the system named is Stat3. The test can be described thus: IL-6 mediated Stat3 activation (p-Stat3 immunoblot) in MM cells. It counts as cell-based. The arrangement: key to P-Stat 3: (inhibition = ↓); (no effect) = —. To be noted: for P-Stat 3: Stat3 inhibition, immunoblot. The procedure:
(§4) To examine the effect of newly synthesized AG and WP compounds on cytokine-mediated Stat activation, multiple myeloma (MM-1) cells were pretreated with AG490 or AG1801 at 2.5, 12, and 25 μM concentrations (for 2 hr) before stimulating cells with IL-6 or IFN-α for 10 min. Stat3 and Stat1 expression and activation were examined by immunoblotting.
To determine the effect of compounds on both Stat3 activation and c-myc protein expression MM-1, OCI-My5 and U266 cells were incubated with 25 μM of AG1801, AG490, WP1038, WP1039, WP1051, or WP1052 for 2 hours before cells were stimulated with 2 ng/ml IL-6 for 10 min. Cell lysates were prepared and immunoblotted for p-Stat3, Stat3, c-myc and actin (as a control). Both Stat3 activation and c-myc expression were effected by WP and AG compounds.

Test [3] relates to MM colonies from bone marrow aspirates of MM patients. Nature of the test: Primary MM colony formation in methyl-cellulose. The format is cell-based, human. To be noted: 12 μM, 7 to 10 days. As to the method:
To determine whether these compounds effect primary MM colony growth bone marrow aspirates from MM patients were partially-purified by magnetic bead separation and analyzed for immunoglobulin heavy-chain gene rearrangement by PCR. Cells were grown as colonies in methyl-cellulose in the presence or absence of AG compound as noted for 7 to 10 days. Control colonies were examined for Ig heavy chain gene rearrangement to confirm the clonal nature of the population.

Another test deals with IFN-α signaling. Nature of the test: IFN-α signaling (Stat1) immunoblot in MM-1 cells. Particulars: 12 and 25 μM, IFN-α 10 min. It counts as cell-based. The procedure: as §4
A further test has as its system OCI-My5 cells. Nature of the test: Caspase activation and PARP cleavage in OCI-My5 cells. It counts as cell-based. To be noted: 12.5 and 25 μM. The procedure: To determine whether AG1801 effects caspase activation in MM cells, OCI-My5 cells were treated as described above before cell lysates were examined for casapase activation and PARP cleavage. […] At 12.5 and 25 μM, AG490 was ineffective in caspase activation and PARP clevage in these cells.

The subject of a further test is c-myc/Stat3. The test can be described thus: Stat3/c-myc inhibitory activity in MM-1 cells (FIG. 7). It counts as cell-based. An excerpt: An improved inhibition of c-myc/Stat3 by WP1066, WP1130, and WP1129 was observed (FIG. 7). The compounds were compared with regard to their Stat3/c-myc inhibitory activity in MM-1 cells.
Test [4] concerns c-myc. The test can be described thus: c-myc protein immunoblot in LP non-Hodgkin lymphoma cells. The format is cell-based. To be noted: LP cells, 3-25 μM. As to the method: Additional cell types were examined for response to treatment with WP1066.
(§5) Further studies were conducted to determine the dose and time dependent effects of these new compounds on IL-6 mediated Stat3 activation, c-myc protein expression and anti-proliferative of LP and other cell types.

Test [5] has as its system Stat3. Nature of the test: IL-6 mediated Stat3 activation immunoblot in LP cells. It counts as cell-based. To be noted: 3-25 μM. As to the method: as §5

One may read the IC50 as the point on the concentration scale where inhibition reaches its midpoint. Regarding `C[C@@H](NC(=O)/C(C#N)=C/c1ccc([N+](=O)[O-])cc1)c1ccccc1` [WP 1034], the C-Myc result in the test on c-myc [1] was “↓”. Besides, in the test on MM-1 MM cells, the IC50 was found to be 3.5 µM; the “Growth and survival of MM1 cells (in words)” value was “effective in reducing the growth and survival; also recorded: demonstrated increased potency compared to AG490”. In the test with U266 MM cells, the “Growth and survival of U266 cells (in words)” value is “effective in reducing the growth and survival; also recorded: demonstrated increased potency compared to AG490”; it took 4.5 µM to reach half-maximal inhibition (IC50). Also, in the test on OCI MM cells, the IC50 came out at 6.3 µM; the “Growth and survival of OCI cells (in words)” value was “effective in reducing the growth and survival; also recorded: demonstrated increased potency compared to AG490”.
For `N#C/C(=C\c1cccc([N+](=O)[O-])c1)C(=O)NCc1ccccc1` [WP 1074], the IC50 with MM-1 MM cells is > 2.5 µM.
Same read-out and setting: as for `N#C/C(=C\c1cccnc1)C(=O)NCc1ccccc1` [WP 1075], the figure is > 2.5 µM.
On to `C[C@@H]1C[C@@H]([C@H](O)CC2CC(=O)NC(=O)C2)C(=O)[C@@H](C)C1` [CHX, cycloheximide, reference compound], for which, in the test with c-myc [1] (1.56-25 μM WP compounds, CHX 0-30 min at much higher concentrations), the “Suppression of c-myc protein expression” value was “did not result in the rapid reduction of c-myc”.
Turning to `CN(C)c1ccc(/C=C(\C#N)C(=O)NCc2ccccc2)c([N+](=O)[O-])c1` [WP 1076], the IC50 with MM-1 MM cells was > 2.5 µM.
For `N#C/C(=C\c1ccc([N+](=O)[O-])cc1)C(=O)NCc1ccccc1` [AG 1801], in the test with c-myc mRNA, the “c-myc mRNA expression” value was “minimal effects”. The “Suppression of IL-6 signaling (Stat3 activation)” value in the test on Stat3 [2] (MM-1 cells, 2 hr pretreatment, 12 and 25 μM, IL-6 10 min) is given as “effective in suppressing IL-6 signaling”. Moreover, the “P-Stat 3” value in the test on Stat3 [2] is reported as “↓”. In addition, the “c-myc expression, temporal effects” value in the test with c-myc [1] (MM-1 cells, 25 and 50 μM, 30, 60, 120 min) is “rapidly reduced c-myc expression”. In the test with c-myc [1], the C-Myc entry is given as “↓”. For the same compound, the “Inhibition of MM colony formation” value in test [3] is given as “completely inhibited MM colony formation”. Further, in the test on MM-1 MM cells, the 50% inhibitory concentration (IC50) amounted to 7.5 µM; the “Growth and survival of MM1 cells (in words)” value was “effective in reducing the growth and survival; also recorded: demonstrated increased potency compared to AG490”. The “Effect on IFN-α signaling” value in the test with IFN-α signaling is listed as “without effecting IFN-α”. Further, in the test with U266 MM cells, the “Growth and survival of U266 cells (in words)” value was “effective in reducing the growth and survival; also recorded: demonstrated increased potency compared to AG490”; the 50% inhibitory concentration (IC50) is 9 µM. Further, in the test with OCI-My5 cells, the “Caspase activation (caspase 3 and caspase 8)” value is “activated both upstream and downstream caspases”; the PARP cleavage result was “increased PARP clevage”. Besides, in the test with OCI MM cells, the half-inhibitory concentration (IC50) turned out to be 12 µM; the “Growth and survival of OCI cells (in words)” value was “effective in reducing the growth and survival; also recorded: demonstrated increased potency compared to AG490”.
For `C[C@H](NC(=O)/C(C#N)=C/c1ccc([N+](=O)[O-])cc1)c1ccccc1` [WP 1050], the C-Myc entry in the test with c-myc [1] was “↓”. In addition, in the test with MM-1 MM cells, the IC50 was 2.1 µM; the “Growth and survival of MM1 cells (in words)” value is listed as “demonstrated increased potency compared to AG490”. Moreover, in the test on U266 MM cells, the “Growth and survival of U266 cells (in words)” value was “demonstrated increased potency compared to AG490”; the 50% inhibitory concentration (IC50) was found to be 5 µM. Also, in the test on OCI MM cells, the half-inhibitory concentration (IC50) is > 12.5 µM; the “Growth and survival of OCI cells (in words)” value is listed as “demonstrated increased potency compared to AG490”.
Take `C[C@H](NC(=O)/C(C#N)=C/c1ccc([N+](=O)[O-])c(O)c1)c1ccccc1` [WP 1051]: the “P-Stat 3” value with Stat3 [2] is listed as “↓”. In the test with c-myc [1], the C-Myc result is on record as “↓”. Also, the IC50 in the test with MM-1 MM cells is 5.5 µM; in the test on U266 MM cells it was 11.1 µM; in the test with OCI MM cells, > 12.5 µM.
Turning to `N#C/C(=C\c1cc(O)ccc1[N+](=O)[O-])C(=O)NCc1ccccc1` [WP 1073], the 50% inhibitory concentration (IC50) in the test on MM-1 MM cells was > 2.5 µM.
On the same count and under the same terms, then `N#C/C(=C\c1ccc(Cl)c([N+](=O)[O-])c1)C(=O)NCc1ccccc1` [WP 1077], with 2.5 µM.
For the compound `CCC[C@H](NC(=O)/C(C#N)=C/c1cccc(Br)n1)c1ccccc1` [WP1130], the “Inhibition of c-myc/Stat3” value in the test on c-myc/Stat3 is listed as “Strong inhibition”. Moreover, the “IC50 against MM-1 myeloma relative to WP1066” value in the test with MM-1 MM cells (FIG. 6) was “even better than compound WP1066”.
Turning to `C[C@@H](NC(=O)/C(C#N)=C/c1ccc([N+](=O)[O-])c(O)c1)c1ccccc1` [WP 1038], in the test with Stat3 [2], the “P-Stat 3” value is “↓”. For the same compound, in the test on c-myc [1], the C-Myc entry was “↓”. Further, the results for the IC50 with MM-1 MM cells, in the test with U266 MM cells and with OCI MM cells were 6.2 µM, 11.8 µM and > 12.5 µM, respectively.
As to `N#C/C(=C\c1cccc(Br)n1)C(=O)NCc1ccccc1` [WP 1015], the “Inhibition of Stat3 phosphorylation” value in the test with Stat3 [2] (MM-1 cells) was “more effective in inhibiting Stat3 phosphorylation”. In the test with c-myc [1] (6, 12, 25 μM, AG490 up to 50 μM), the “Inhibition of c-myc protein expression” value was “more active than previously synthesized WP compounds”. Moreover, in the test on c-myc [1], the C-Myc entry is “↓”. Also, in the test on c-myc [4], the c-myc expression result is reported as “reduced c-myc expression”. Further, the IC50 with MM-1 MM cells turned out to be 1.9 µM. For the same compound, in the test with Stat3 [5], the “IL-6 mediated Stat3 activation” value is reported as “blocked IL-6 mediated Stat3 activation”.
Consider `C[C@H](NC(=O)/C(C#N)=C/c1ccccn1)c1ccccc1` [WP 1065], for which, in the test on MM-1 MM cells, the concentration for half-maximal inhibition (IC50) stood at 3 µM.
